Test results taken from patent US8841413B2, “Antidiabetic compounds” (Cadila Healthcare Limited, priority 2006, dated 2014).

Tests used:
[1] = test system: RIN5F (Rat Insulinoma) cells; assay: In vitro glucose-dependent insulin secretion (RIN5F cell assay); assay type: cell-based; conditions: 16.7 mM glucose load, mean ± S.D., n = 3
Protocol: After trypsinization, RIN5F cells were seeded at a concentration of 0.2×10^6·cells per well, in 12 well plates.
The supernatant was collected and the insulin amount was measured by ultra sensitive Rat insulin ELISA kit (Crystal Chem, Ill.). The protein was estimated in the supernatant using Bicinchoninic Acid kit, according to the manufacturer's protocol (Sigma Aldrich, Mo.). The total insulin content obtained in Pico-gram (pg) was divided with the total protein (μg) in order to normalize for differences in cell density between wells.

human glucagon receptor = target: T1, human glucagon receptor (Homo sapiens, UniProt P47871); assay: In vitro human glucagon antagonist activity (inhibition of cAMP production), CHO/human glucagon R cells; assay type: cell-based
T1 construct: The full-length cDNA was cloned in pcDNA3.1(Invitrogen); expressed in transfected cells
Protocol: CHO cells were grown in Ham's F12 medium containing L-Glutamine (2 mM), HEPES (25 mM), NaHCO3 (1.1 g/L) and supplemented with newborn Calf Serum (NBCS; 10%), Penicillin (50 U/ml (v/v)) and Streptomycin (50 ug/ml (v/v)). Cells were split every 3 days 1:8.
The full-length cDNA was cloned in pcDNA3.1(Invitrogen). […] Clones expressing the receptor were generated by G418 (800 μg/ml active, Sigma) selection. The stable clones were thereafter maintained at 500 ug/ml (G418). The selected clone was used between passages 9-25 for cAMP assays.
The trypsin was inactivated using Ham's F12 medium containing 10% NBCS and the cells were suspended in 2 ml of complete medium. […] The medium was aspirated off from the 12 well plate and the cells were washed once using Ham's F12 (plain). […] After the incubation; the medium was removed and cells were washed once with plain Ham's F12. Subsequently, the cells were lysed by adding 500 ul of ice cold 0.1 N HCl to each well and shaking for 30 minutes at 200 rpm. The cells were then scrapped, the lysate was collected in micro centrifuge tubes and centrifuged at 12000 rpm for 10 min to remove the debris. 300 ul of supernatant from each micro-centrifuge tube was then removed into a glass tube and dried under N2 for 30 min, for cAMP estimation. The total cAMP was estimated from the sample according to the manufacturer's protocol using Cyclic AMP immunoassay kit (R&D systems, Minneapolis: MN). The remaining supernatant is used to determine the protein concentration using micro BCA (Sigma). Data is calculated as percent of control (Vehicle: water) and expressed as Mean+SD.

DPP IV = DPP IV (Homo sapiens, UniProt P27487); assay: Stability against DPP IV enzyme; assay type: in vitro ADME; conditions: for % degradation in 24 h when incubated with DPP-IV enzyme: 2 μM, 37° C.; for half-life at 2 μM: DPP IV enzyme, pH 7.8, 37° C., read-out: half-life (t1/2) with DPP-IV enzyme
Outline: (§1)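 Acidic quench (10% v/v TFA/H2O) preceded reversed-phase chromatography monitored at 206 nm, with fractions confirmed by ESI-MS.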

[2] = Stability in human plasma; assay type: in vitro ADME; conditions: for % degradation in 24 h when incubated with human plasma / half-life (t1/2) in human plasma: 2 μM, 37° C.; for half-life at 2 μM: human, pooled human plasma, pH 7.8, 37° C., read-out: half-life (t1/2) in human plasma
Outline: as §1

[3] = Stability in simulated gastric fluid; assay type: in vitro ADME; conditions: 37° C., pH 1.5, pepsin; for % degradation in 24 h when incubated with simulated gastric fluid / half-life (t1/2) in simulated gastric fluid: 2 μM; for half-life at 2 μM: simulated gastric fluid with pepsin, read-out: half-life (t1/2) in simulated gastric fluid
Outline: as §1

[4] = Stability in simulated intestinal fluid; assay type: in vitro ADME; conditions: 37° C.; for % degradation in 24 h when incubated with simulated intestinal fluid / half-life (t1/2) in simulated intestinal fluid: 2 μM, pH 7.5; for half-life at 2 μM: simulated intestinal fluid, pH 7.5, read-out: half-life (t1/2) in simulated intestinal fluid
Outline: as §1

[5] = Stability against liver microsomes; assay type: in vitro ADME, human; conditions: for % degradation in 24 h when incubated with liver microsomes: 2 μM, 37° C.; for half-life at 2 μM: human, human liver microsomes, pH 7.8, 37° C., read-out: half-life (t1/2) with liver microsomes
Outline: as §1

[6] = 1 nM test compound (fourth concentration column, between 100 nM and 10 μM) with saturated concentration of glucagon peptide
[7] = 1 nM test compound with saturated concentration of glucagon peptide
[8] = 10 nM test compound with saturated concentration of glucagon peptide
[9] = 100 nM test compound with saturated concentration of glucagon peptide
[10] = 10 μM test compound with saturated concentration of glucagon peptide

Sequence of DPP IV (P27487 whole entry, species assumed): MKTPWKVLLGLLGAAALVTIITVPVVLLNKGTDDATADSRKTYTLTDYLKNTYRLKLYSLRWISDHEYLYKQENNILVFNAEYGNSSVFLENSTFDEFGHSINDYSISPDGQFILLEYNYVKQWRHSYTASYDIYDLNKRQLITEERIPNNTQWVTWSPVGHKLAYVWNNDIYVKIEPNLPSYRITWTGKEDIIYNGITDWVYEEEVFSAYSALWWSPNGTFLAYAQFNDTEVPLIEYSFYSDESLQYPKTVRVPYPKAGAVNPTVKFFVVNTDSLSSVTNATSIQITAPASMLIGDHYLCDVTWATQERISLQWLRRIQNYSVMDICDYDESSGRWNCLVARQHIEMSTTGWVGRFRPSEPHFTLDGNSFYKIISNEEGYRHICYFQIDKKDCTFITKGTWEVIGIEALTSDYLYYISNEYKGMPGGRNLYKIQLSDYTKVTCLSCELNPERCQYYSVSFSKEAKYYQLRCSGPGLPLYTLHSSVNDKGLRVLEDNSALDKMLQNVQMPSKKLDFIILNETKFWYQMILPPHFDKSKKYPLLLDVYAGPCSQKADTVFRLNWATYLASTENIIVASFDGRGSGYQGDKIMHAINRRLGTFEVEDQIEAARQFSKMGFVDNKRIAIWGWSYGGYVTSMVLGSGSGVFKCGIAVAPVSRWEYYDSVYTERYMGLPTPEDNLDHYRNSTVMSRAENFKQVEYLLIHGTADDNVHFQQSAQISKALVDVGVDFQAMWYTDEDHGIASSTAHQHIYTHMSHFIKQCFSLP
T1 sequence (P47871 26-477): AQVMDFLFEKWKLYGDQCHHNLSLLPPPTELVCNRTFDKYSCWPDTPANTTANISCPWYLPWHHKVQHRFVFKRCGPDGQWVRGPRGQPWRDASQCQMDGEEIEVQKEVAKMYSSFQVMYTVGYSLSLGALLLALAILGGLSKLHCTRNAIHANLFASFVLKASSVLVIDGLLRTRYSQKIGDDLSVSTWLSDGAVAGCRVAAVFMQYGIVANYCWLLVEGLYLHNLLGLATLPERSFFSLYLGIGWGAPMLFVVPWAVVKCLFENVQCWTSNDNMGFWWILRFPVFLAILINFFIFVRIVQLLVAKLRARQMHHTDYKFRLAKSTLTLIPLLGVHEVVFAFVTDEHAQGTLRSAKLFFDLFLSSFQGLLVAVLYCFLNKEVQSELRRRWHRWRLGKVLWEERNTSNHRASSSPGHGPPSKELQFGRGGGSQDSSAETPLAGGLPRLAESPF

| Structure (SMILES) | Insulin secretion ([1]; 0.1 nM test compd.) | Insulin secretion ([1]; 1 nM test compd.) | Insulin secretion ([1]; 10 nM test compd.) | Human Glucagon receptor antagonistic activity, inhibition of cAMP production of Glucagon peptide (human glucagon receptor; [6]) | Human Glucagon receptor antagonistic activity, inhibition of cAMP production of Glucagon peptide (human glucagon receptor; [7]) | Human Glucagon receptor antagonistic activity, inhibition of cAMP production of Glucagon peptide (human glucagon receptor; [8]) | Human Glucagon receptor antagonistic activity, inhibition of cAMP production of Glucagon peptide (human glucagon receptor; [9]) | Human Glucagon receptor antagonistic activity, inhibition of cAMP production of Glucagon peptide (human glucagon receptor; [10]) | % degradation in 24 h when incubated with DPP-IV enzyme (DPP IV) | half-life at 2 μM (DPP IV) | % degradation in 24 h when incubated with human plasma [2] | half-life at 2 μM [2] | % degradation in 24 h when incubated with simulated gastric fluid [3] | half-life (t1/2) in simulated gastric fluid [3] | % degradation in 24 h when incubated with simulated intestinal fluid [4] | % degradation in 24 h when incubated with liver microsomes [5] | half-life at 2 μM [5] | half-life (t1/2) in human plasma [2] | half-life at 2 μM [3] | half-life at 2 μM [4] | further results |
| --- | --- | --- | --- | --- | --- | --- | --- | --- | --- | --- | --- | --- | --- | --- | --- | --- | --- | --- | --- | --- | --- |
| CCc1cc(OC)ccc1-c1ccc(CC(NC(=O)[C@H](CC(=O)O)NC(=O)[C@H](CO)NC(=O)[C@@H](NC(=O)C(C)(Cc2ccccc2F)NC(=O)[C@@H](NC(=O)CNC(=O)[C@H](CCC(N)=O)NC(=O)[C@H](CO)NC(=O)[C@@H](N)Cc2c[nH]cn2)[C@@H](C)O)[C@@H](C)O)C(=O)NC(Cc2ccc(-c3ccccc3C(F)(F)F)cc2)C(N)=O)cc1 (single isomer, unassigned) [compound 24] | 12.3 ± 0.33 pg/µg/h | 14.8 ± 0.16 pg/µg/h | 28.1 ± 0.22 pg/µg/h | 0 pmol/ml/μg prt | 4 ± 0.09 pmol/ml/μg prt | 2 ± 0.12 pmol/ml/μg prt | 0 pmol/ml/μg prt | 0 pmol/ml/μg prt | 76% | 540 min | 78% | 480 min | 14% | (8) h | 43% | 80% | 60 min |  |  |  | half-life (t1/2) in simulated intestinal fluid [4]: (6) h |
| CCc1cc(OC)ccc1-c1ccc(CC(NC(=O)[C@H](CC(=O)O)NC(=O)[C@H](CO)NC(=O)[C@@H](NC(=O)[C@H](Cc2ccccc2)NC(=O)[C@@H](NC(=O)CNC(=O)[C@H](CCC(N)=O)NC(=O)[C@H](C)NC(=O)[C@@H](N)Cc2c[nH]cn2)[C@@H](C)O)[C@@H](C)O)C(=O)NC(Cc2ccc(-c3ccccc3C)cc2)C(N)=O)cc1 (single isomer, unassigned) [compound 9] | 11.8 ± 0.50 pg/µg/h | 14.9 ± 0.11 pg/µg/h | 27.9 ± 0.31 pg/µg/h | 8 ± 0.02 pmol/ml/μg prt | 18 ± 0.07 pmol/ml/μg prt | 16 ± 0.01 pmol/ml/μg prt | 12 ± 0.03 pmol/ml/μg prt | 6 ± 0.08 pmol/ml/μg prt | 74% |  | 75% |  | 100% |  | 100% | 100% | 30 min | (9) h | 30 min | 30 min |  |
| CCc1cc(OC)ccc1-c1ccc(CC(NC(=O)[C@H](CC(=O)O)NC(=O)[C@H](CO)NC(=O)[C@@H](NC(=O)[C@H](Cc2ccccc2)NC(=O)[C@@H](NC(=O)CNC(=O)[C@H](CCC(N)=O)NC(=O)[C@H](CO)NC(=O)[C@@H](N)Cc2c[nH]cn2)[C@@H](C)O)[C@@H](C)O)C(=O)NC(Cc2ccc(-c3ccccc3C)cc2)C(N)=O)cc1 (single isomer, unassigned) [compound 5] | 12.1 ± 0.52 pg/µg/h | 14.1 ± 0.16 pg/µg/h | 28.0 ± 0.36 pg/µg/h | 14 ± 0.03 pmol/ml/μg prt | 20 ± 0.06 pmol/ml/μg prt | 18 ± 0.09 pmol/ml/μg prt | 16 ± 0.01 pmol/ml/μg prt | 12 ± 0.01 pmol/ml/μg prt | 76% |  | 78% |  | 100% |  | 100% | 100% | 30 min | (9) h | 30 min | 30 min |  |
| CCc1cc(OC)ccc1-c1ccc(CC(NC(=O)[C@H](CC(=O)O)NC(=O)[C@H](CO)NC(=O)[C@@H](NC(=O)[C@H](Cc2ccccc2)NC(=O)[C@@H](NC(=O)CNC(=O)[C@H](CCC(N)=O)NC(=O)[C@H](C)NC(=O)[C@@H](N)Cc2c[nH]cn2)[C@@H](C)O)[C@@H](C)O)C(=O)NC(Cc2ccc(-c3ccccc3F)cc2)C(N)=O)cc1 (single isomer, unassigned) [compound 11] | 13.1 ± 0.11 pg/µg/h | 14.9 ± 0.17 pg/µg/h | 28.8 ± 0.44 pg/µg/h | 2 ± 0.13 pmol/ml/μg prt | 10 ± 0.03 pmol/ml/μg prt | 8 ± 0.03 pmol/ml/μg prt | 6 ± 0.22 pmol/ml/μg prt | 0 pmol/ml/μg prt | 86% |  | 70% |  | 100% |  | 100% | 100% | 30 min | (9) h | 30 min | 30 min |  |
| CCc1cc(OC)ccc1-c1ccc(CC(NC(=O)[C@H](CC(=O)O)NC(=O)[C@H](CO)NC(=O)[C@@H](NC(=O)C(C)(Cc2ccccc2F)NC(=O)[C@@H](NC(=O)CNC(=O)[C@H](CCC(N)=O)NC(=O)[C@H](C)NC(=O)[C@@H](N)Cc2c[nH]cn2)[C@@H](C)O)[C@@H](C)O)C(=O)NC(Cc2ccc(-c3ccccc3F)cc2)C(N)=O)cc1 (single isomer, unassigned) [compound 27] | 12.6 ± 0.25 pg/µg/h | 15.3 ± 0.31 pg/µg/h | 29.7 ± 0.48 pg/µg/h | 3 ± 0.12 pmol/ml/μg prt | 14 ± 0.02 pmol/ml/μg prt | 11 ± 0.03 pmol/ml/μg prt | 7 ± 0.22 pmol/ml/μg prt | 0 pmol/ml/μg prt | 86% | 540 min | 70% | 480 min | 15% | (8) h | 41% | 77% | 60 min |  |  |  | half-life (t1/2) in simulated intestinal fluid [4]: (6) h |
